Reference: patent US20210079037A1, “LIGHT-SWITCHABLE POLYPEPTIDE AND USES THEREOF” (TECHNISCHE UNIVERSITÄT MÜNCHEN, priority 2017, published 2021)

How the values were obtained:
[1] = Solubility in water and culture medium; assay type: physicochemical; details: physiological pH
[2] = Light-induced isomerization of Caf, analysis by HPLC; assay type: physicochemical; details: for isomer composition after irradiation with green light (HPLC): green LED light, λ=520 nm, after UV irradiation; for isomer composition before irradiation (HPLC): ground state, prior to irradiation
Protocol: 500 μl of a 60 μM solution of Caf (7) in water was placed in a 1.5 ml HPLC vial (Screw neck vial N9, amber glass, 11.6×32 mm; Macherey Nagel, Duren, Germany) and irradiated with a UV LED (λ=353 nm, NS355L-5RLO; Nitride Semiconductors, Tokushima, Japan) for 30 min directly from the top. Before and after irradiation, a 20 μl sample of the solution was withdrawn and analyzed by HPLC on a Purospher RP-8e 250×3 mm column (Merck), applying a concentration gradient of 10-12% acetonitrile (ACN) in 50 mM NH4OAc buffer pH 8 over 10 min (flow rate 0.6 ml/min). Another sample was analyzed in the same manner after irradiation with green LED light (λ=520 nm, LL-504PGC2E-G5-2CC, Lucky Light Electronics, Hongkong, China). […] The chromatograms reveal that the cis and trans isomers of (7) can be separated by HPLC (cis-(7) tR=3.6 min, trans-(7) tR=4.6 min). […] However, it should be taken into account that also during HPLC analysis reisomerization of cis-(7) to trans-(7) takes place, so the proportion of cis-(7) after irradiation with UV light might actually be higher than indicated by HPLC chromatograms. Thus, if the light-switchable polypeptide of the present invention is applied for an affinity chromatography procedure, and the trans configuration corresponds to the high affinity state whereas the cis configuration corresponds to the low affinity conformation, then the highest degree of binding and the highest degree of elution of the molecule of interest takes place at 430 nm and 330 nm, respectively. However, conventional light sources usually provide light having wavelengths that are around 530 nm (visible light) and 365 nm (UV light). Therefore, also light providing these wavelengths (i.e. around 530 nm and/or around 365 nm) may be used in accordance with the present invention.

[3] = Light-induced isomerization of Caf, analysis by UV-VIS spectroscopy; assay type: physicochemical; details: 30 μM aqueous solution; alternating UV and green LED irradiation over 3 cycles
Source text: The electronic transition π→π* is usually in the near UV region around 340 nm (Sension et al. 1993 J. Chem. Phys. 98: 6291-6315) whereas the electronic transition n→π* is usually located in the visible (VIS) region around 420 nm and is due to the presence of unshared electron pairs of the nitrogen atoms (Naegele et al. 1997 Chem. Phys. Lett. 272: 489-495). To examine whether the synthesized non-natural amino acid Caf (7) can respond to photoswitching induced by UV light, the compound was subjected to alternating irradiation cycles. In a typical experiment, 0.5 ml of a 30 μM aqueous solution was placed in a quartz cuvette with 1 cm optical pathlength. Then the sample was irradiated for 30 min from the top using a UV LED (NS355L-5RLO; Nitride Semiconductors, Tokushima, Japan) with 353 nm or a green LED (LL-504PGC2E-G5-2CC; Lucky Light Electronics, Hongkong, China) with 520 nm emitting wavelength. The change in intensity of the π-π* band at around 340 nm corresponding to the trans/cis isomerization (FIG. 4A) was monitored with a computer controlled photometer (Ultrospec 2100 pro, Amersham Biosciences).

[4] = prior art amino acid; cited from earlier work

solubility in water and LB culture medium [1]	isomer composition after irradiation with UV light (HPLC) ([2]; after irradiation with UV light)	proportion of cis-(7) ([2]; after irradiation with UV light for 30 min, 60 μM in water, HPLC at 286 nm)	isomer composition after irradiation with green light (HPLC) [2]	isomer composition after irradiation with green light (HPLC) ([2]; listed as 7)	isomer composition before irradiation (HPLC) [2]	isomer composition before irradiation (HPLC) ([2]; listed as 7)	photoswitching between trans and cis configuration (absorbance at about 340 nm) [3]	Compound	solubility in water as well as culture media [4]
good solubility								N[C@@H](Cc1ccc(N=Nc2cccc(C(=O)O)c2)cc1)C(=O)O [3′-carboxyphenylazophenylalanine, 4-[(3-Carboxyphenyl)azo]-L-phenylalanine]	
good solubility	mostly cis isomer	up to 86%	recovering the ground state	mostly trans isomer	only energetically favored trans-(7)	essentially pure trans isomer	reversible photoswitching	N[C@@H](Cc1ccc(N=Nc2ccc(C(=O)O)cc2)cc1)C(=O)O [Caf, 4-[(4-carboxyphenyl)azo]-L-phenylalanine]	
								N[C@@H](Cc1ccc(N=Nc2ccccc2)cc1)C(=O)O [AzoPhe]	extremely poor solubility
